Measurements taken from PubChem BioAssay (NCI).
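Step 1: Grow cells in 96-well plates. Step 2: Expose to compound for 48 hours at 5 concentrations. Step 3: Interpolate endpoints linearly; if unreached, use highest concentration. Definition used: TGI = concentration required for complete inhibition of growth.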

Legend:
Experiment in all cases: NCI tumour cell line growth inhibition, 48 h
786-0 renal = tested on: 786-0 renal
A498 renal = tested on: A498 renal
A549 NSCLC = tested on: A549 NSCLC
ACHN renal = tested on: ACHN renal
BT-549 breast = tested on: BT-549 breast
CAKI-1 renal = tested on: CAKI-1 renal
CCRF-CEM leukemia = tested on: CCRF-CEM leukemia
COLO 205 colon = tested on: COLO 205 colon
DU-145 prostate = tested on: DU-145 prostate
EKVX NSCLC = tested on: EKVX NSCLC
HCC-2998 colon = tested on: HCC-2998 colon
HCT-116 colon = tested on: HCT-116 colon
HCT-15 colon = tested on: HCT-15 colon
HL-60(TB) leukemia = tested on: HL-60(TB) leukemia
HOP-62 NSCLC = tested on: HOP-62 NSCLC
HOP-92 NSCLC = tested on: HOP-92 NSCLC
HS 578T breast = tested on: HS 578T breast
HT29 colon = tested on: HT29 colon
IGROV1 ovarian = tested on: IGROV1 ovarian
K-562 leukemia = tested on: K-562 leukemia
KM12 colon = tested on: KM12 colon
LOX IMVI melanoma = tested on: LOX IMVI melanoma
M14 melanoma = tested on: M14 melanoma
MALME-3M melanoma = tested on: MALME-3M melanoma
MCF7 breast = tested on: MCF7 breast
MDA-MB-231 breast = tested on: MDA-MB-231 breast
MDA-MB-435 = tested on: MDA-MB-435
MDA-N = tested on: MDA-N
MOLT-4 leukemia = tested on: MOLT-4 leukemia
NCI-H226 lung = tested on: NCI-H226 lung
NCI-H23 lung = tested on: NCI-H23 lung
NCI-H460 lung = tested on: NCI-H460 lung
NCI-H522 lung = tested on: NCI-H522 lung
NCI/ADR-RES ovarian = tested on: NCI/ADR-RES ovarian
OVCAR-3 ovarian = tested on: OVCAR-3 ovarian
OVCAR-4 ovarian = tested on: OVCAR-4 ovarian
OVCAR-5 ovarian = tested on: OVCAR-5 ovarian
OVCAR-8 ovarian = tested on: OVCAR-8 ovarian
PC-3 prostate = tested on: PC-3 prostate
RPMI-8226 leukemia = tested on: RPMI-8226 leukemia
RXF 393 renal = tested on: RXF 393 renal
SF-268 CNS = tested on: SF-268 CNS
SF-295 CNS = tested on: SF-295 CNS
SF-539 CNS = tested on: SF-539 CNS
SK-MEL-2 melanoma = tested on: SK-MEL-2 melanoma
SK-MEL-28 melanoma = tested on: SK-MEL-28 melanoma
SK-MEL-5 melanoma = tested on: SK-MEL-5 melanoma
SK-OV-3 ovarian = tested on: SK-OV-3 ovarian
SN12C renal = tested on: SN12C renal
SNB-19 CNS = tested on: SNB-19 CNS
SNB-75 CNS = tested on: SNB-75 CNS
SR leukemia = tested on: SR leukemia
SW-620 colon = tested on: SW-620 colon
T-47D breast = tested on: T-47D breast
TK-10 renal = tested on: TK-10 renal
U251 CNS = tested on: U251 CNS
UACC-257 melanoma = tested on: UACC-257 melanoma
UACC-62 melanoma = tested on: UACC-62 melanoma
UO-31 renal = tested on: UO-31 renal

## O=C(/C=C/c1cccc(Br)c1)c1ccc(Cl)cc1
786-0 renal
  TGI: 28.3 µM
A498 renal
  TGI: 26.5 µM
A549 NSCLC
  TGI: 33.5 µM
ACHN renal
  TGI: 30.4 µM
BT-549 breast
  TGI: 31.9 µM
CAKI-1 renal
  TGI: 40.1 µM
CCRF-CEM leukemia
  TGI: 24.9 µM
COLO 205 colon
  TGI: 30.9 µM
DU-145 prostate
  TGI: 30.3 µM
EKVX NSCLC
  TGI: 29.7 µM
HCC-2998 colon
  TGI: 33.7 µM
HCT-116 colon
  TGI: 18 µM
HCT-15 colon
  TGI: 31.1 µM
HL-60(TB) leukemia
  TGI: 44.5 µM
HOP-62 NSCLC
  TGI: 35.9 µM
HOP-92 NSCLC
  TGI: 31.7 µM
HS 578T breast
  TGI: 57.3 µM
HT29 colon
  TGI: 24.5 µM
IGROV1 ovarian
  TGI: 35.8 µM
K-562 leukemia
  TGI: 45.7 µM
KM12 colon
  TGI: 32.5 µM
LOX IMVI melanoma
  TGI: 28 µM
M14 melanoma
  TGI: 28.1 µM
MALME-3M melanoma
  TGI: 29 µM
MCF7 breast
  TGI: 16.3 µM
MDA-MB-231 breast
  TGI: 35.2 µM
MDA-MB-435
  TGI: 25.5 µM
MDA-N
  TGI: 20 µM
MOLT-4 leukemia
  TGI: 77.8 µM
NCI-H226 lung
  TGI: 33.7 µM
NCI-H23 lung
  TGI: 32.7 µM
NCI-H460 lung
  TGI: 37.3 µM
NCI-H522 lung
  TGI: 30.5 µM
NCI/ADR-RES ovarian
  TGI: 59.2 µM
OVCAR-3 ovarian
  TGI: 32.3 µM
OVCAR-4 ovarian
  TGI: 32.1 µM
OVCAR-5 ovarian
  TGI: 30.6 µM
OVCAR-8 ovarian
  TGI: 32.1 µM
PC-3 prostate
  TGI: 28.2 µM
RPMI-8226 leukemia
  TGI: 6.31 µM
RXF 393 renal
  TGI: 35.5 µM
SF-268 CNS
  TGI: 34.1 µM
SF-295 CNS
  TGI: 32.6 µM
SF-539 CNS
  TGI: 30.4 µM
SK-MEL-2 melanoma
  TGI: 29.3 µM
SK-MEL-28 melanoma
  TGI: 29.1 µM
SK-MEL-5 melanoma
  TGI: 27.2 µM
SK-OV-3 ovarian
  TGI: 43.6 µM
SN12C renal
  TGI: 32.4 µM
SNB-19 CNS
  TGI: 30.1 µM
SNB-75 CNS
  TGI: 28.1 µM
SR leukemia
  TGI: 20.4 µM
SW-620 colon
  TGI: 13.3 µM
T-47D breast
  TGI: 32.1 µM
TK-10 renal
  TGI: 27.2 µM
U251 CNS
  TGI: 18.6 µM
UACC-257 melanoma
  TGI: 32.1 µM
UACC-62 melanoma
  TGI: 29 µM
UO-31 renal
  TGI: 29.3 µM

## O=[N+]([O-])O
786-0 renal
  TGI: > 100 µM
A498 renal
  TGI: > 100 µM
A549 NSCLC
  TGI: > 100 µM
ACHN renal
  TGI: > 100 µM
BT-549 breast
  TGI: > 100 µM
CAKI-1 renal
  TGI: > 100 µM
CCRF-CEM leukemia
  TGI: > 100 µM
COLO 205 colon
  TGI: > 100 µM
DU-145 prostate
  TGI: > 100 µM
EKVX NSCLC
  TGI: > 100 µM
HCC-2998 colon
  TGI: > 100 µM
HCT-116 colon
  TGI: > 100 µM
HCT-15 colon
  TGI: > 100 µM
HL-60(TB) leukemia
  TGI: > 100 µM
HOP-62 NSCLC
  TGI: > 100 µM
HOP-92 NSCLC
  TGI: > 100 µM
HS 578T breast
  TGI: > 100 µM
HT29 colon
  TGI: > 100 µM
IGROV1 ovarian
  TGI: > 100 µM
K-562 leukemia
  TGI: > 100 µM
KM12 colon
  TGI: > 100 µM
LOX IMVI melanoma
  TGI: > 100 µM
M14 melanoma
  TGI: > 100 µM
MALME-3M melanoma
  TGI: > 100 µM
MCF7 breast
  TGI: > 100 µM
MDA-MB-231 breast
  TGI: > 100 µM
MDA-MB-435
  TGI: > 100 µM
MDA-N
  TGI: > 100 µM
MOLT-4 leukemia
  TGI: > 100 µM
NCI-H226 lung
  TGI: > 100 µM
NCI-H23 lung
  TGI: > 100 µM
NCI-H460 lung
  TGI: > 100 µM
NCI-H522 lung
  TGI: > 100 µM
NCI/ADR-RES ovarian
  TGI: > 100 µM
OVCAR-3 ovarian
  TGI: > 100 µM
OVCAR-4 ovarian
  TGI: > 100 µM
OVCAR-5 ovarian
  TGI: > 100 µM
OVCAR-8 ovarian
  TGI: > 100 µM
PC-3 prostate
  TGI: > 100 µM
RPMI-8226 leukemia
  TGI: > 100 µM
RXF 393 renal
  TGI: > 100 µM
SF-268 CNS
  TGI: > 100 µM
SF-295 CNS
  TGI: > 100 µM
SF-539 CNS
  TGI: > 100 µM
SK-MEL-2 melanoma
  TGI: > 100 µM
SK-MEL-28 melanoma
  TGI: > 100 µM
SK-MEL-5 melanoma
  TGI: > 100 µM
SK-OV-3 ovarian
  TGI: > 100 µM
SN12C renal
  TGI: > 100 µM
SNB-19 CNS
  TGI: > 100 µM
SNB-75 CNS
  TGI: > 100 µM
SR leukemia
  TGI: > 100 µM
SW-620 colon
  TGI: > 100 µM
T-47D breast
  TGI: > 100 µM
TK-10 renal
  TGI: > 100 µM
U251 CNS
  TGI: > 100 µM
UACC-257 melanoma
  TGI: > 100 µM
UACC-62 melanoma
  TGI: > 100 µM
UO-31 renal
  TGI: > 100 µM
